Assay results as given in PubChem BioAssay AID1963440 (Molecular Pharmacology Branch, DTP, NCI, 2024).

Tested on: NCI-H1417 complex spheroids, growth % test/control
Test: Anticancer human tumor NCI-H1417 cell line growth inhibition [Asc];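 note: spheroids exposed to compounds for 7 days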;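 for viability, T/C: 100% = DMSO vehicle control wells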
Settings: for IC50: curve of first compound; for viability, T/C: stronger effect = lower value
Outline: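 Complex solid-tumor spheroids incorporating human endothelial and mesenchymal stem cells received single agents or combinations over half-log dilution ranges anchored to clinical Cmax.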

[1] = second compound 0.1 µM, first compound 0.00316 µM
[2] = second compound 0.1 µM, first compound 0.01 µM
[3] = second compound 0.1 µM, first compound 0.0316 µM
[4] = second compound 0.1 µM, first compound 0.1 µM
[5] = second compound 0.1 µM, first compound 0.316 µM
[6] = second compound 0.1 µM, first compound 1 µM
[7] = second compound 0.316 µM, first compound 0.00316 µM
[8] = second compound 0.316 µM, first compound 0.01 µM
[9] = second compound 0.316 µM, first compound 0.0316 µM
[10] = second compound 0.316 µM, first compound 0.1 µM
[11] = second compound 0.316 µM, first compound 0.316 µM
[12] = second compound 0.316 µM, first compound 1 µM
[13] = second compound 1 µM, first compound 0.00316 µM
[14] = second compound 1 µM, first compound 0.01 µM
[15] = second compound 1 µM, first compound 0.0316 µM
[16] = second compound 1 µM, first compound 0.1 µM
[17] = second compound 1 µM, first compound 0.316 µM
[18] = second compound 1 µM, first compound 1 µM
[19] = second compound 3.16 µM, first compound 0.00316 µM
[20] = second compound 3.16 µM, first compound 0.01 µM
[21] = second compound 3.16 µM, first compound 0.0316 µM
[22] = second compound 3.16 µM, first compound 0.1 µM
[23] = second compound 3.16 µM, first compound 0.316 µM
[24] = second compound 3.16 µM, first compound 1 µM
[25] = second compound 10 µM, first compound 0.00316 µM
[26] = second compound 10 µM, first compound 0.01 µM
[27] = second compound 10 µM, first compound 0.0316 µM
[28] = second compound 10 µM, first compound 0.1 µM
[29] = second compound 10 µM, first compound 0.316 µM
[30] = second compound 10 µM, first compound 1 µM

SMILES	IC50 (second compound 0.1 µM) [nM]	IC50 (second compound 0.316 µM) [nM]	IC50 (second compound 1 µM) [nM]	IC50 (second compound 3.16 µM) [nM]	IC50 (second compound 10 µM) [nM]	viability, T/C [1] [%]	viability, T/C [2] [%]	viability, T/C [3] [%]	viability, T/C [4] [%]	viability, T/C [5] [%]	viability, T/C [6] [%]	viability, T/C [7] [%]	viability, T/C [8] [%]	viability, T/C [9] [%]	viability, T/C [10] [%]	viability, T/C [11] [%]	viability, T/C [12] [%]	viability, T/C [13] [%]	viability, T/C [14] [%]	viability, T/C [15] [%]	further results
CCN1CCN(Cc2ccc(Nc3ncc(F)c(-c4cc(F)c5nc(C)n(C(C)C)c5c4)n3)nc2)CC1 + Cc1c(S(C)(=O)=O)c(-c2cc(F)cc(N3CCN(c4ccc(NS(=O)(=O)c5ccc(NC(CCN6CCC(C(=O)OCCCP(=O)(O)O)CC6)CSc6ccccc6)c(S(=O)(=O)C(F)(F)F)c5)cc4)CC3)c2)c(-c2ccc(Cl)cc2)n1C(C)C	> 1000	< 3.16	< 3.16	< 3.16	< 3.16	88.6	83.6	82.2	69.5	66.6	58.1	47.8	45.8	44.7	28.9	24	21	14.4	12	10.6	viability, T/C [16]: 7.35%; viability, T/C [17]: 6.95%; viability, T/C [18]: 2.98%; viability, T/C [19]: 2.92%; viability, T/C [20]: 2.69%; viability, T/C [21]: 2.77%; viability, T/C [22]: 2.85%; viability, T/C [23]: 2.68%; viability, T/C [24]: 3.02%; viability, T/C [25]: 2.2%; viability, T/C [26]: 2.36%; viability, T/C [27]: 2.21%; viability, T/C [28]: 1.72%; viability, T/C [29]: 2.26%; viability, T/C [30]: 2.79%
COc1c(OCCCN2CCOCC2)ccc2c3n(c(=NC(=O)c4cnc(N)nc4)nc12)CCN3 + Cc1c(S(C)(=O)=O)c(-c2cc(F)cc(N3CCN(c4ccc(NS(=O)(=O)c5ccc(NC(CCN6CCC(C(=O)OCCCP(=O)(O)O)CC6)CSc6ccccc6)c(S(=O)(=O)C(F)(F)F)c5)cc4)CC3)c2)c(-c2ccc(Cl)cc2)n1C(C)C	87.7	< 3.16	< 3.16	< 3.16	< 3.16	79.6	80.2	60.5	45.7	34.8	14.1	46.7	43	24.1	12.7	10.1	3.24	14.9	9.99	8.47	viability, T/C [16]: 2.77%; viability, T/C [17]: 1.93%; viability, T/C [18]: 0.85%; viability, T/C [19]: 2.73%; viability, T/C [20]: 2.65%; viability, T/C [21]: 1.29%; viability, T/C [22]: 0.44%; viability, T/C [23]: 0.22%; viability, T/C [24]: 0.21%; viability, T/C [25]: 2.03%; viability, T/C [26]: 1.93%; viability, T/C [27]: 1.06%; viability, T/C [28]: 0.31%; viability, T/C [29]: 0.21%; viability, T/C [30]: 0.23%
